Measured values taken from patent US6534522B2, “Subtype-selective NMDA receptor ligands and the use thereof” (Warner-Lambert Company, priority 1995, dated 2003).
Structures can show the parent of a compound that is named as a salt. Where two headings read alike, the source gives them in different places.

Experiments:
Assay type in all cases: cell-based
[1] = target: NR1A/2A NMDA receptor (Rattus norvegicus, UniProt P35439+Q00959); assay: Xenopus oocyte expression system, two-electrode voltage clamp, NR1A/2A
Source text: (§1) Electrophysiological assays may be utilized to characterize the actions of potential subtype-selective ligands at NMDA receptors expressed in Xenopus oocytes. The ligand may be assayed at the different subunit combinations of cloned rat NMDA receptors corresponding to the four putative NMDA receptor subtypes (Moriyoshi et al., Nature (Lond.) 354:31-37 (1991); Monyer et al., Science (Washington, D.C.) 256:1217-1221 (1992); Kutsuwada et al., Nature (Lond.) 358:36-41 (1992); Sugihara et al., Biochem. Biophys. Res. Comm. 185:826-832 (1992)).
(§2) Using fixed saturating concentrations of agonists (glutamate 100 μM, glycine 1-10 μM depending on subunit combination), the inhibitory potency of a putative subtype-selective ligand may be assayed at the NMDA receptors assembled from NR1A/2A, NR1A/2B, NR1A/2C and NR1A/2D subunit combinations.
(§3) The Xenopus oocyte expression system. Mature female Xenopus laevis were anaesthetized (20-40 min) using 0.15% 3-aminobenzoic acid ethyl ester (MS-222) and 2-4 ovarian lobes were surgically removed. Oocytes at developmental stages IV-VI (Dumont, J. N., J. Morphol. 136:153-180 (1972)), were dissected from the ovary still surrounded by enveloping ovarian tissues. Follicle-enclosed oocytes were micro-injected with 1:1 mixtures of cRNA:NR1A+NR2A, 2B, 2C or 2D; injecting ˜2, 5, or 20 ng of RNA encoding each receptor subunit. NR1A encoding cRNA was injected alone at ˜20 ng. Oocytes were stored in Barth's medium containing (in mM): NaCl, 88; KCl, 1; CaCl2, 0.41; Ca(NO3)2, 0.33; MgSO4, 0.82; NaHCO3, 2.4; HEPES 5; pH 7.4, with 0.1 mg/mL gentamycin sulphate. While oocytes were still surrounded by enveloping ovarian tissues the Barth's medium was supplemented with 0.1% bovine serum. Oocytes were defolliculated 1-2 days following injections by treatment with collagenase (0.5 mg/mL Sigma Type I for 0.5-1 hr) (Miledi and Woodward, J. Physiol. (Lond.) 416:601-621 (1989)) and subsequently stored in serum-free medium.
(§4) Electrical recordings were made using a conventional two-electrode voltage clamp (Dagan TEV-200) over periods ranging between 3-21 days following injection. Oocytes were placed in a 0.1 mL recording chamber continuously perfused (5-15 mL min^−1) with frog Ringer's solution containing (in mM): NaCl, 115; KCl, 2; CaCl2, 1.8; HEPES, 5; pH 7.4. Drugs were applied by bath perfusion. When using the more rapid flow rates, half-times for mid-chamber solution changes were between 2-3 sec, however, exchange rates for drug solutions at the oocyte surface (i.e. beneath the vitelline envelope and among the tangles of microvilli) were probably considerably longer (Woodward et al., Mol. Pharmacol. 41:89-103 (1992)). Zero-Ca^2+/Ba^2+ Ringer had the composition (in mM): NaCl, 115; KCl, 2; BaCl2, 1.8; HEPES, 5; pH 7.4. Intraoocyte injections were made by pneumatic pressure-pulse ejection from micropipettes (Miledi and Parker, J. Physiol. (Lond.) 357:173-183 (1984)). Injection solutions of EGTA (40-400 mM) and BAPTA (50-500 mM) were made up in H2O, pH adjusted to 7.4 with KOH or HCl, and filtered to minimize plugging (Acrodisc-13, […]). Pressure was set between 200-400 kPa. The volume of injections was regulated by adjusting the time of pulses (0.1-1 sec) and was estimated by measuring the diameters of ejected droplets.
(§5) Concentration-inhibition curves were fit with equation 2.
(§6) I/Icontrol=1/(1+([antagonist]/10^−pIC50)^n) Eq. 2
(§7) in which Icontrol is the current evoked by agonists alone, pIC50=−log IC50, […] is the concentration of antagonist that produces half maximal inhibition, and n is the slope factor. For incomplete curves analysis by fitting was unreliable and IC50 values were calculated by simple regression over linear portions of the curves (Origin: Microcal Software).
(§8) Drugs were initially dissolved at concentrations of 10-100 mM in DMSO. Dilutions were then made to generate a series of DMSO stock solutions over the range 10 μM to 100 mM. Working solutions were made by 1000-3000 fold dilution of stocks into Ringer. […]

[2] = target: NR1A/2B NMDA receptor (Rattus norvegicus, UniProt P35439+Q00960); assay: Xenopus oocyte expression system, two-electrode voltage clamp, NR1A/2B
Source text: as §1, §2, §3, §4, §5, §6, §7, §8

[3] = target: NR1A/2C NMDA receptor (Rattus norvegicus, UniProt P35439+Q00961); assay: Xenopus oocyte expression system, two-electrode voltage clamp, NR1A/2C
Source text: as §1, §2, §3, §4, §5, §6, §7, §8

[4] = cloned NR1A/2A subunits expressed in Xenopus oocytes, inhibition of agonist-evoked membrane current, read-out: 1A/2A IC50
[5] = cloned NR1A/2B subunits expressed in Xenopus oocytes, inhibition of agonist-evoked membrane current, read-out: 1A/2B IC50
[6] = cloned NR1A/2C subunits expressed in Xenopus oocytes, inhibition of agonist-evoked membrane current, read-out: 1A/2C IC50

NR1A/2B NMDA receptor, sequence (Q00960 27-1482, other chains not shown): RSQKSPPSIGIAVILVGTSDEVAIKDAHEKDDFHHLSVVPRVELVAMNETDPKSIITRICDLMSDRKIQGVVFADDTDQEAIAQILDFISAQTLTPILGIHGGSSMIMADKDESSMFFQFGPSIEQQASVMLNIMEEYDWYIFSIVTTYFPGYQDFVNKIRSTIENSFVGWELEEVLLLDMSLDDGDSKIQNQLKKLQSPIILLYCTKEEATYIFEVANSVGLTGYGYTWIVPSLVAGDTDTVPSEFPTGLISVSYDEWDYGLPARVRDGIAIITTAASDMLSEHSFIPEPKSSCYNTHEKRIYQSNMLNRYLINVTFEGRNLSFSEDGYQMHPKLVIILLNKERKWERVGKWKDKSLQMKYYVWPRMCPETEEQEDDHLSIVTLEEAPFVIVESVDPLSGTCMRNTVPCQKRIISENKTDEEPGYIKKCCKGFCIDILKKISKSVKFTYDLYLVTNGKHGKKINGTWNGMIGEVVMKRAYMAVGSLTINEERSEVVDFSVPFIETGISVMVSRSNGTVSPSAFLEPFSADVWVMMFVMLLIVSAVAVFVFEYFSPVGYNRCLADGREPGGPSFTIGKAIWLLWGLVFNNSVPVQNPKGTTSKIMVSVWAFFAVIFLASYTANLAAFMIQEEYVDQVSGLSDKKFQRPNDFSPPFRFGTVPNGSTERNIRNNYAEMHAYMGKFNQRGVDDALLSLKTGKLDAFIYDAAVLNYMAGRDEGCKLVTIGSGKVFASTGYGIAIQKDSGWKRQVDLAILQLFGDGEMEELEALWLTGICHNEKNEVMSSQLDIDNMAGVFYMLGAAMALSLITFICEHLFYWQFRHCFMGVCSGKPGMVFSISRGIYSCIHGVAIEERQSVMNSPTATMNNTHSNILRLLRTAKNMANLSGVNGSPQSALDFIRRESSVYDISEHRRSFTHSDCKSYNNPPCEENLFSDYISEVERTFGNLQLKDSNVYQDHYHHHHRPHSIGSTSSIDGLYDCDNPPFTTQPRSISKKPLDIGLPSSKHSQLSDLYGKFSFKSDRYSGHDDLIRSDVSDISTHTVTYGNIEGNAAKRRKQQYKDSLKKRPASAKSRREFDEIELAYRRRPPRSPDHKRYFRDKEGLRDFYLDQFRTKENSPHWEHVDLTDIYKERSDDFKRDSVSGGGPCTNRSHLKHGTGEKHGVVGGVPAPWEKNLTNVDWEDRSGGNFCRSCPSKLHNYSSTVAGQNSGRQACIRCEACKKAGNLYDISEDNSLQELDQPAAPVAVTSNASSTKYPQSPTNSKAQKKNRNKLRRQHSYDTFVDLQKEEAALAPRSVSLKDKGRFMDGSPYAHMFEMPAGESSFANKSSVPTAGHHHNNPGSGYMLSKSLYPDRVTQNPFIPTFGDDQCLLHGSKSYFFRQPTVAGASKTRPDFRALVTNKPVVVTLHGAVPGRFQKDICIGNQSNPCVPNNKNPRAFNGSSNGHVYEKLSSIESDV
NR1A/2C NMDA receptor, sequence (Q00961 20-1237, other chains not shown): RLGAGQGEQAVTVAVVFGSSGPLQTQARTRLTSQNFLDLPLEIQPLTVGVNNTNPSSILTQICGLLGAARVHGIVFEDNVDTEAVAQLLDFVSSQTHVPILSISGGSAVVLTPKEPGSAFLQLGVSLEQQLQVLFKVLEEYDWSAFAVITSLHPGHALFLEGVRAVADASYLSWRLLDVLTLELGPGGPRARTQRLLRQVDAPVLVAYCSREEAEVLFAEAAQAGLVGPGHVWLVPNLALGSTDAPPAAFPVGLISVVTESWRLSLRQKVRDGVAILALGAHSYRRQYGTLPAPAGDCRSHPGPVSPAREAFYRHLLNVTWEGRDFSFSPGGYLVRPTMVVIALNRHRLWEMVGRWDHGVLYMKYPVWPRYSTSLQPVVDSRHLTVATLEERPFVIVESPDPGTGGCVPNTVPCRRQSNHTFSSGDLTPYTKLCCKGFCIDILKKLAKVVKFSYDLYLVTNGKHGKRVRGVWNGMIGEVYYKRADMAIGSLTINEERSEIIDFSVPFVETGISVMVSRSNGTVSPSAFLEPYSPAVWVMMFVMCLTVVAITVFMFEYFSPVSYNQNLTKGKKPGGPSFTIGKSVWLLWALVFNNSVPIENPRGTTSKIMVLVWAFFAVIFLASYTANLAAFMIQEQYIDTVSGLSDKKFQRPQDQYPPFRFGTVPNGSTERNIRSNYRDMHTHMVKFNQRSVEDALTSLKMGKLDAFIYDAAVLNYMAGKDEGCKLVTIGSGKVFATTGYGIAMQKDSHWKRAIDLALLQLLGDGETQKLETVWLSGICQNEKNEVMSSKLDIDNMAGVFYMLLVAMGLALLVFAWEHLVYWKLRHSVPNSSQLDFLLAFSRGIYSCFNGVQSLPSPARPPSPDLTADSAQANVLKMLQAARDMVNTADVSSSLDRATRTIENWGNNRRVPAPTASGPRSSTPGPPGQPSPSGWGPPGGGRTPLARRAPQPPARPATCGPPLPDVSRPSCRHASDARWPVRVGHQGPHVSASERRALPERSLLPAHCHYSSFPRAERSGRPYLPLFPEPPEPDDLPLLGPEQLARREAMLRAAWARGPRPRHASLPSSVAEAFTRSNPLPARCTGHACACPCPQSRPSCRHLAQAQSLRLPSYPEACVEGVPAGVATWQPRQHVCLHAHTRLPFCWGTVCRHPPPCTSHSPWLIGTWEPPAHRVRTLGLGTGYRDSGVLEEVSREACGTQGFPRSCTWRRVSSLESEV
NR1A/2A NMDA receptor, sequence (Q00959 20-1464 limits assumed, other chains not shown): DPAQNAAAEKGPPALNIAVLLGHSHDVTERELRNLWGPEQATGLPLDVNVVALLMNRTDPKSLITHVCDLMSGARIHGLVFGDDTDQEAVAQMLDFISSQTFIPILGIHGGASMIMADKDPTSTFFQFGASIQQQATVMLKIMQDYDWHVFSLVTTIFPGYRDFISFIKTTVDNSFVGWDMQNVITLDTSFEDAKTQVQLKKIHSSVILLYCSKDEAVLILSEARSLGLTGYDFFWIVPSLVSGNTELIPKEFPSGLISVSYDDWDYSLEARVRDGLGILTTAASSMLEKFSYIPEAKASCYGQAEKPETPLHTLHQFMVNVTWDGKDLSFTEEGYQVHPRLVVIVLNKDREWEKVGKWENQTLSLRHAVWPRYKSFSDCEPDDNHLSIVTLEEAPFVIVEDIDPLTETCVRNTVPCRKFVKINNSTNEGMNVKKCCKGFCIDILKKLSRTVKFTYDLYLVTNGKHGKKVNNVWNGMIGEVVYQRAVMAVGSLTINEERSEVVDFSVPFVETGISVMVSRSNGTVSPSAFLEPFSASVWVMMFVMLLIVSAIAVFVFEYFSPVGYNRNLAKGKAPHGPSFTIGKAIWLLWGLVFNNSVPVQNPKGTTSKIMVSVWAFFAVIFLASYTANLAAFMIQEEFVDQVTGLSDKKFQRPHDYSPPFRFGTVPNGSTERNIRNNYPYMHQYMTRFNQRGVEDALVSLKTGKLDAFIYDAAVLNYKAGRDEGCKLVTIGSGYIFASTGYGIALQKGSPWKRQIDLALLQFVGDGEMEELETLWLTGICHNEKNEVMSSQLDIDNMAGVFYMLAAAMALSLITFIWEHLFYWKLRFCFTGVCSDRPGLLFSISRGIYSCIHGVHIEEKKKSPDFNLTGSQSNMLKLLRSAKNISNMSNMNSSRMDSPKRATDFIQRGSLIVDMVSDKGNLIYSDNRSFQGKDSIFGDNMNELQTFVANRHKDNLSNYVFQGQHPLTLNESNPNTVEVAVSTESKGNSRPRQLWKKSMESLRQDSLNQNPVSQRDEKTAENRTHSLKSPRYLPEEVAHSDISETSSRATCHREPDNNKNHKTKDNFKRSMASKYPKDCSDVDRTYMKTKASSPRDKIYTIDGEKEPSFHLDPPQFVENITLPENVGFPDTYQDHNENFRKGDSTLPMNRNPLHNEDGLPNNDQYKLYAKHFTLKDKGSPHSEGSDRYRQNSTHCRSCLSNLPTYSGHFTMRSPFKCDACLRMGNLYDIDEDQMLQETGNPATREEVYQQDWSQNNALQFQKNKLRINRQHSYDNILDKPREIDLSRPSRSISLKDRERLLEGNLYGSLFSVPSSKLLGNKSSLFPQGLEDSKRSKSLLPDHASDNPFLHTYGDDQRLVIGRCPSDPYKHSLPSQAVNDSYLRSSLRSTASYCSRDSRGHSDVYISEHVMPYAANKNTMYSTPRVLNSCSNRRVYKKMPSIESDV

Row | Compound | IC50 [1, 4] [µM] | IC50 [2, 5] [µM] | IC50 [3, 6] [µM] | IC50 [1] [µM] | IC50 [2] [µM] | IC50 [3] [µM]
1 | CCOC(=O)CCCN1CCCC(Cc2ccccc2)C1 (stereo not drawn) [Ex. 35, 4-(3-Benzylpiperidinyl)butyric acid ethyl ester] | > 300 | 150 | > 300 |  |  | 
2 | OCC1CC2CC(Cc3ccccc3)CCN2C1 (stereo not drawn) [Ex. 88, 7-Benzyl-1,2,3,5,6,7,8,9-octahydro-2-(hydroxymethyl)indolizine] | > 300 | 5 | > 300 |  |  | 
3 | CCCCN1CCC(Cc2ccccc2)CC1 [(B), 4-benzyl-1-butylpiperidine] | > 300 | 25 | > 300 |  |  | 
4 | O=C(CCCN1CCC(O)CC1)c1ccccc1 [Ex. 13, 4-(4-Hydroxypiperidinyl) butyrophenone] | 80 | 53 | 140 |  |  | 
5 | c1ccc(OCCN2CCc3ccccc3C2)cc1 [Ex. 18, N-(2-Phenoxyethyl)-1,2,3,4-tetrahydroisoquinoline] | 140 | 35 | > 100 |  |  | 
6 | C#CCCN1CCC(O)(c2ccc(Cl)cc2)CC1 [Ex. 7, 1-(3-Butynyl)-4-(p-chlorphenyl)-4-hydroxypiperidine] | > 300 | 65 | > 300 |  |  | 
7 | Fc1cccc(C=C2CCN(Cc3ccccc3)CC2)c1 [Ex. 9, 1-Benzyl-4-(m-fluorobenzylidene)piperidine] | 240 | 14 | > 300 |  |  | 
8 | OC1(Cc2ccccc2)CCN(CCCc2ccccc2)CC1 [Ex. 16, 4-Benzyl-4-hydroxy-1-(3-phenylpropyl)piperidine] | 20 | 17 | 80 |  |  | 
9 | CCCCCCN1CCC(Cc2ccccc2)CC1 [(A), 4-benzyl-1-hexylpiperidine] | > 300 | 5 | > 300 |  |  | 
10 | C=CC[N+]1(CC=C)CCCCC1Cc1ccccc1 (stereo not drawn) [Ex. 38(B), 2-benzyl-l,1-diallylpiperidinium iodide] | 28 | 50 | 50 |  |  | 
11 | OCCCCN1CCC(Cc2ccccc2)CC1 [Ex. 86, 4-Benzyl-1-(4-hydroxybutyl)piperidine hydrobromide] | > 300 | 12 | > 300 |  |  | 
12 | C#CCCN1CCC(Cc2ccccc2)CC1 [Ex. 6, 4-benzyl-1-(3-Butynyl)piperidine] | > 300 | 2.3 | > 300 |  |  | 
13 | COC(=O)CCCCN1CCCC(Cc2ccccc2)C1 (stereo not drawn) [Ex. 34, 5-(3-Benzylpiperidinyl)valeric acid methyl ester] | > 300 | 240 | > 300 |  |  | 
14 | 1-(2-Phenylethyl)-4-benzylidenepiperidine [Ex. 15] | 60 | 5.5 | 230 |  |  | 
15 | O=C(Nc1ccc([N+](=O)[O-])cc1)N1CCC(Cc2ccccc2)CC1 [Ex. 30, 1-[2-aza-1-oxo-2-(4-nitrophenyl)ethyl]-4-benzylpiperidine] | 95 | 8 | > 100 |  |  | 
16 | CC(O)CCN1CCC(Cc2ccc(N)cc2)CC1 (stereo not drawn) [Ex. 105, 4-(4-aminobenzyl)-1-(3-hydroxy-butyl) piperidine hydrochloride] | 120 | 17 | > 300 |  |  | 
17 | O=C(c1cccc(F)c1)C1CCN(CCCCc2ccccc2)CC1 [(C), 4-(3′-fluorobenzoyl)-1-(4″-phenylbutyl)piperidine] | > 300 | 10 | > 300 |  |  | 
18 | CCOC(=O)CCCN1CCC(Cc2ccccc2)CC1 [Ex. 41, 4-(4-Benzylpiperidinyl) butyric acid ethyl ester hydrobromide salt] | > 300 | > 300 | > 300 |  |  | 
19 | NC(=O)CCCCN1CCC(Cc2ccccc2)CC1 [Ex. 2, 4-Benzylpiperidylpentamide] | > 300 | 1.6 | > 300 |  |  | 
20 | C=CCN1CCCCC1Cc1ccccc1 (stereo not drawn) [Ex. 38(A), 1-Allyl-2-benzylpiperidine, hydrobromide] |  |  |  | 25 | 72 | 65
